The values below come from US7713994B2 (Wyeth LLC, priority 2005, dated 2010).

The subject of test [1] is LoVo. Kind of test: Cytotoxicity assay (SRB), LoVo. In kind it is cell-based. The note with it: Homo sapiens, LoVo, 72 h, LoVo cells, 3 days, SRB; read-out: In Vitro Cellular Activity IC50 LOVO. As to the method: (§1) BT474, HCT-116, LoVo and MCF-7 were maintained under 7% CO2 in RPMI 1640 medium supplemented with 10% fetal bovine serum and 50 µg/ml gentamicin.
(§2) Cells were plated in 96-well microtiter dishes (12000 cells/well for BT474, 4000 cells/well for HCT-116, 6000 cells/well for LoVo and 6000 cells/well for MCF-7) in RPMI 1640 medium containing 5% fetal bovine serum and 50 µg/ml gentamicin. The cells were allowed to incubate overnight at 37° C., 7% CO2. Compound dilutions were prepared using the same medium. HCT-116, LoVo and MCF-7 cells were cultured for three days and BT474 cells were cultured for 6 days, in the presence of each compound dilution. Untreated cells were included as controls. The percentage of surviving cells was determined using a protein binding dye (sulforhodamineB, SRB) assay. Cellular protein was precipitated in each well by the addition of 0.05 ml of 50% cold trichloroacetic acid (TCA). After 1 hour, the plates were washed extensively in dH2O and dried. The sulforhodamineB dye solution (0.08 mL of 0.4% SRB in 1% acetic acid) was added to each well, kept at room temperature for ten minutes, then washed in 1% acetic acid and dried. The dye was dissolved in 10 mM Tris-HCl (150 uL) and the absorbency read at 540 nm.

Test [2] deals with MCF-7. Put plainly: Cytotoxicity assay (SRB), MCF-7. In kind it is cell-based. The note with it: Homo sapiens, MCF7, 72 h, MCF-7 cells, 3 days, SRB; read-out: In Vitro Cellular Activity IC50 MCF-7. As to the method: as §1, §2
For test [3], the system named is HCT-116. Put plainly: Cytotoxicity assay (SRB), HCT-116. The test is classed as cell-based. The note with it: Homo sapiens, HCT-116, 72 h, HCT116 cells, 3 days, SRB; read-out: In Vitro Cellular Activity IC50 HCT116. As to the method: as §1, §2
Test [4] relates to BT474. Put plainly: Cytotoxicity assay (SRB), BT474. The test is classed as cell-based. The conditions noted are these: Homo sapiens, BT-474, 144 h, BT474 cells, 6 days, SRB; read-out: In Vitro Cellular Activity IC50 BT474. As to the method:
as §1, §2

Test [5] deals with T1, cyclin D1/cdk 4 enzyme (Homo sapiens, UniProt P11802).
T1 construct: made in house; host or cells: Sf9 insect cells, recombinant baculovirus
T1 sequence (P11802 whole entry, species assumed): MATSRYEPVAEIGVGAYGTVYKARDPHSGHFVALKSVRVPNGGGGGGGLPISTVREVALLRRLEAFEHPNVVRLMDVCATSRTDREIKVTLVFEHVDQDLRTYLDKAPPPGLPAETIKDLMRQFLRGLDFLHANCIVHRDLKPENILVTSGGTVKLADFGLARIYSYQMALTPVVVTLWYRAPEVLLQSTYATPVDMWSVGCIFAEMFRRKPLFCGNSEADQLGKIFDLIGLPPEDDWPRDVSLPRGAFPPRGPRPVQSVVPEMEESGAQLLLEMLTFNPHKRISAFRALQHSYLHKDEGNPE
T1 sequence (P24385 whole entry partner, species assumed): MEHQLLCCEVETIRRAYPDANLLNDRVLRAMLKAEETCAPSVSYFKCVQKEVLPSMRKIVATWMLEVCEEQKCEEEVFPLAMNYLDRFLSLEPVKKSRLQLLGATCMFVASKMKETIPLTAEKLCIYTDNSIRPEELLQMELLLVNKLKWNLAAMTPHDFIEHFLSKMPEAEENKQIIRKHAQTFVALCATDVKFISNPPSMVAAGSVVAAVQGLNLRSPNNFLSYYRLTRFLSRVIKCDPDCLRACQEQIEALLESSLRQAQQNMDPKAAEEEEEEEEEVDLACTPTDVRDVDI
Kind of test: CDK4 ELISA kinase assay (phospho-Rb ser 795 detection). The test is classed as biochemical. The conditions noted are these: In Vitro Enzyme Assay, cyclin D1/cdk 4, read-out: CDK4 IC50. A digest of the protocol:
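GST-Rb C-terminal fragment coated on wells; kinase reaction: 200 μM ATP, 0.5 mg/ml BSA, HEPES pH 7.5, 10 mM MgCl2, baculovirus/Sf9 cyclin-CDK, 30° C, 1 h. Readout anti-phospho-Rb Ser795, HRP, TMB, A450. Test compound 10 ug/ml final.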
On the technique in general: An ELISA detects its analyte on a solid surface through an enzyme-linked reagent.

As usually defined, the IC50 is the concentration that gives 50% inhibition. For the compound `NS(=O)(=O)c1ccc(CNC=C2C(=O)NC(=O)c3ccc(C=Cc4ccccn4)cc32)cc1` [Example 652, 4-({[1,3-Dioxo-6-(2-pyridin-2-yl-vinyl)-2,3-dihydro-1H-isoquinolin-4-ylidenemethyl]-amino}-methyl)-benzenesulfonamide], the IC50 is more than 50 µM in test [1]; 27 µM in test [2]; more than 50 µM in test [3]; 28.5 µM in test [4]; 2.4 µM in test [5].
Regarding `NS(=O)(=O)c1ccc(CNC=C2C(=O)NC(=O)c3ccc(C=Cc4ccccc4)cc32)cc1` [Example 654, 4-{[(1,3-Dioxo-6-styryl-2,3-dihydro-1H-isoquinolin-4-ylidenemethyl)-amino]-methyl}-benzenesulfonamide], the half-inhibitory concentration (IC50) in test [1] amounted to 13.1 µM; in test [2] it was 10.7 µM; in test [3] it was 2.4 µM; in test [4], 3.1 µM; in test [5], 2 µM.
In the case of `NS(=O)(=O)c1ccc(CNC=C2C(=O)NC(=O)c3ccc(C=CC4CCCCC4)cc32)cc1` [Example 656, 4-({[6-(2-Cyclohexyl-vinyl)-1,3-dioxo-2,3-dihydro-1H-isoquinolin-4-ylidenemethyl]-amino}-methyl)-benzenesulfonamide], the 50% inhibitory concentration (IC50) was determined as 11.7 µM in test [1]; 12.2 µM in test [2]; 12.6 µM in test [3]; 13.4 µM in test [4]; 4.8 µM in test [5].
Taken in the same sequence, the figures for `O=C1NC(=O)c2ccc(C=Cc3ccc4ccccc4c3)cc2C1=CNCc1ccc(O)c(O)c1` [Example 661, 4-[(3,4-Dihydroxy-benzylamino)-methylene]-6-(2-naphthalen-2-yl-vinyl)-4H-isoquinoline-1,3-dione] were more than 50 µM, 37.5 µM, more than 50 µM, 36.9 µM and 5.5 µM.
Taken in the same sequence, the figures for `CN1CCN(c2ccc(NC=C3C(=O)NC(=O)c4ccc(-c5cc6ccccc6o5)cc43)cc2)CC1` [Example 669, 6-Benzofuran-2-yl-4-{[4-(4-methyl-piperazin-1-yl)-phenylamino]-methylene}-4H-isoquinoline-1,3-dione] were 20.6 µM, 2.9 µM, 2.9 µM, 2 µM and 9.6 µM.
For `CN1CCN(c2ccc(NC=C3C(=O)NC(=O)c4ccc(C=CCn5ccnc5)cc43)cc2)CC1` [Example 679, 6-(3-Imidazol-1-yl-propenyl)-4-{[4-(4-methyl-piperazin-1-yl)-phenylamino]-methylene}-4H-isoquinoline-1,3-dione], the IC50 is 6.9 µM in test [1]; 9.2 µM in test [2]; 6.4 µM in test [3]; 15.5 µM in test [4]; 4.9 µM in test [5].
The corresponding values for `COc1ccc(-c2ccc3c(c2)C(=CNc2ccc(N4CCN(C)CC4)cc2)C(=O)NC3=O)cc1` [Example 682, 6-(4-Methoxy-phenyl)-4-{[4-(4-methyl-piperazin-1-yl)-phenylamino]-methylene}-4H-isoquinoline-1,3-dione] are 5.2 µM, 4.4 µM, 1.5 µM, 2.5 µM and 3.4 µM.
The corresponding values for `CN1CCN(c2ccc(NC=C3C(=O)NC(=O)c4ccc(-c5ccc(Cl)cc5)cc43)cc2)CC1` [Example 689, 6-(4-Chloro-phenyl)-4-{[4-(4-methyl-piperazin-1-yl)-phenylamino]-methylene}-4H-isoquinoline-1,3-dione] are 6.7 µM, 3.8 µM, 3 µM, 3.4 µM and 4.7 µM.
As for `CN1CCN(c2ccc(NC=C3C(=O)NC(=O)c4ccc(-c5ccccc5Cl)cc43)cc2)CC1` [Example 691, 6-(2-Chloro-phenyl)-4-{[4-(4-methyl-piperazin-1-yl)-phenylamino]-methylene}-4H-isoquinoline-1,3-dione], the IC50 turned out to be 2.2 µM in test [1]; 2.8 µM in test [2]; 1.3 µM in test [3]; 3 µM in test [4]; 8.3 µM in test [5].
Regarding `CN1CCN(c2ccc(NC=C3C(=O)NC(=O)c4ccc(-c5cccc(C=CC(=O)O)c5)cc43)cc2)CC1` [Example 699, 3-[3-(4-{[4-(4-Methyl-piperazin-1-yl)-phenylamino]-methylene}-1,3-dioxo-1,2,3,4-tetrahydro-isoquinolin-6-yl)-phenyl]-acrylic acid], the IC50 in test [1] is more than 50 µM; in test [2] it was more than 50 µM; in test [3], 22.9 µM; in test [4], more than 50 µM; in test [5] it was 2.9 µM.
As for `COc1ccc(-c2ccc3c(c2)C(=CNc2ccc(CC#N)cc2)C(=O)NC3=O)cc1` [Example 701, (4-{[6-(4-Methoxy-phenyl)-1,3-dioxo-2,3-dihydro-1H-isoquinolin-4-ylidenemethyl]-amino}-phenyl)-acetonitrile], the concentration for half-maximal inhibition (IC50) in test [1] was more than 50 µM; in test [2], 34.4 µM; in test [3] it was more than 50 µM; in test [4], 39.6 µM; in test [5], 6.6 µM.
Take `N#CCc1ccc(NC=C2C(=O)NC(=O)c3ccc(-c4ccc(F)cc4)cc32)cc1` [Example 704, (4-{[6-(4-Fluoro-phenyl)-1,3-dioxo-2,3-dihydro-1H-isoquinolin-4-ylidenemethyl]-amino}-phenyl)-acetonitrile]: the half-maximal inhibitory concentration (IC50) in test [1] was more than 50 µM; in test [2], 28.6 µM; in test [3], more than 50 µM; in test [4], 26.4 µM; in test [5], 7 µM.
Consider `N#CCc1ccc(NC=C2C(=O)NC(=O)c3ccc(-c4ccccc4F)cc32)cc1` [Example 706, (4-{[6-(2-Fluoro-phenyl)-1,3-dioxo-2,3-dihydro-1H-isoquinolin-4-ylidenemethyl]-amino}-phenyl)-acetonitrile], for which the IC50 in test [1] is more than 50 µM; in test [2], 40.4 µM; in test [3], more than 50 µM; in test [4], more than 50 µM; in test [5], 7.3 µM.
In the case of `CC(=O)c1ccccc1-c1ccc2c(c1)C(=CNc1ccc(CC#N)cc1)C(=O)NC2=O` [Example 711, (4-{[6-(2-Acetyl-phenyl)-1,3-dioxo-2,3-dihydro-1H-isoquinolin-4-ylidenemethyl]-amino}-phenyl)-acetonitrile], the IC50 in test [1] was more than 50 µM; in test [2] it was more than 50 µM; in test [3] it was more than 50 µM; in test [4] it was 46.7 µM; in test [5] it was 9.8 µM.
As for `N#CCc1ccc(NC=C2C(=O)NC(=O)c3ccc(-c4ccccc4Cl)cc32)cc1` [Example 714, (4-{[6-(2-Chloro-phenyl)-1,3-dioxo-2,3-dihydro-1H-isoquinolin-4-ylidenemethyl]-amino}-phenyl)-acetonitrile], the IC50 is more than 50 µM in test [1]; 31.2 µM in test [2]; more than 50 µM in test [3]; more than 50 µM in test [4]; 5.5 µM in test [5].
On to `Cc1ccc(-c2ccc3c(c2)C(=CNc2ccc(CC#N)cc2)C(=O)NC3=O)cc1` [Example 715, {4-[(1,3-Dioxo-6-p-tolyl-2,3-dihydro-1H-isoquinolin-4-ylidenemethyl)-amino]-phenyl}-acetonitrile], for which the IC50 in test [1] worked out at 26 µM; in test [2], 24.8 µM; in test [3] it was 19.6 µM; in test [4], 33.4 µM; in test [5] it was 9.3 µM.
Taken in the same sequence, the figures for `Cc1cccc(-c2ccc3c(c2)C(=CNc2ccc(CC#N)cc2)C(=O)NC3=O)c1` [Example 716, {4-[(1,3-Dioxo-6-m-tolyl-2,3-dihydro-1H-isoquinolin-4-ylidenemethyl)-amino]-phenyl}-acetonitrile] were more than 50 µM, 27.2 µM, more than 50 µM, more than 50 µM and 9.3 µM.
Consider `CN1CCN(c2ccc(NC=C3C(=O)NC(=O)c4ccc(C=CCO)cc43)cc2)CC1` [Example 724, 6-(3-Hydroxy-propenyl)-4-{[4-(4-methyl-piperazin-1-yl)-phenylamino]-methylene}-4H-isoquinoline-1,3-dione], for which the IC50 in test [1] was found to be 10.4 µM; in test [2], 14.8 µM; in test [3], 5.8 µM; in test [4], 16.9 µM; in test [5], 3.6 µM.
